# Tests used:
# Type in all cases: biochemical
# fruit fly pol ɛ = biological target: T1, fruit fly pol ɛ (Drosophila melanogaster, UniProt Q9VCN1); experiment: DNA polymerase assay, insect pol ɛ; details: 100 μM
# T1 construct: purified from early embryos of Drosophila melanogaster; from tissue; host or cells: early embryos of Drosophila melanogaster
# From the text: (§1) Pol α was purified from calf thymus by immuno-affinity column chromatography, as described by Tamai et al.. Recombinant rat pol β was purified from E. coli JMpβ5, as described by Date et al.. The human pol γ catalytic gene was cloned into pFastBac. Histidine-tagged enzyme was expressed using the BAC-TO-BAC HT Baculovirus Expression System according to the supplier’s manual (Life Technologies, MD, USA) and purified using ProBoundresin (Invitrogen Japan, Tokyo, Japan). Human pols δ and ɛ were purified by nuclear fractionation of human peripheral blood cancer cells (Molt-4) using the second subunit of pols δ and ɛ-conjugated affinity column chromatography, respectively. A truncated form of human pol η (residues 1–511) tagged with His6 at its C-terminal was expressed in E. coli cells and purified as described by Kusumoto et al.. A recombinant mouse pol ι tagged with His6 at its C-terminal was expressed and purified by Ni-NTA column chromatography as described elsewhere (Masutani et al., in preparation). […]
# (§2) The compounds were dissolved in distilled dimethyl sulfoxide (DMSO) at various concentrations and sonicated for 30 sec. […] Activity without the inhibitor was considered 100%, and the remaining activity at each concentration of the inhibitor was determined relative to this value. […]
# human telomerase = human telomerase (Homo sapiens, UniProt O14746); experiment: Telomerase assay; details: 100 μM
# human telomerase, sequence (O14746 whole entry): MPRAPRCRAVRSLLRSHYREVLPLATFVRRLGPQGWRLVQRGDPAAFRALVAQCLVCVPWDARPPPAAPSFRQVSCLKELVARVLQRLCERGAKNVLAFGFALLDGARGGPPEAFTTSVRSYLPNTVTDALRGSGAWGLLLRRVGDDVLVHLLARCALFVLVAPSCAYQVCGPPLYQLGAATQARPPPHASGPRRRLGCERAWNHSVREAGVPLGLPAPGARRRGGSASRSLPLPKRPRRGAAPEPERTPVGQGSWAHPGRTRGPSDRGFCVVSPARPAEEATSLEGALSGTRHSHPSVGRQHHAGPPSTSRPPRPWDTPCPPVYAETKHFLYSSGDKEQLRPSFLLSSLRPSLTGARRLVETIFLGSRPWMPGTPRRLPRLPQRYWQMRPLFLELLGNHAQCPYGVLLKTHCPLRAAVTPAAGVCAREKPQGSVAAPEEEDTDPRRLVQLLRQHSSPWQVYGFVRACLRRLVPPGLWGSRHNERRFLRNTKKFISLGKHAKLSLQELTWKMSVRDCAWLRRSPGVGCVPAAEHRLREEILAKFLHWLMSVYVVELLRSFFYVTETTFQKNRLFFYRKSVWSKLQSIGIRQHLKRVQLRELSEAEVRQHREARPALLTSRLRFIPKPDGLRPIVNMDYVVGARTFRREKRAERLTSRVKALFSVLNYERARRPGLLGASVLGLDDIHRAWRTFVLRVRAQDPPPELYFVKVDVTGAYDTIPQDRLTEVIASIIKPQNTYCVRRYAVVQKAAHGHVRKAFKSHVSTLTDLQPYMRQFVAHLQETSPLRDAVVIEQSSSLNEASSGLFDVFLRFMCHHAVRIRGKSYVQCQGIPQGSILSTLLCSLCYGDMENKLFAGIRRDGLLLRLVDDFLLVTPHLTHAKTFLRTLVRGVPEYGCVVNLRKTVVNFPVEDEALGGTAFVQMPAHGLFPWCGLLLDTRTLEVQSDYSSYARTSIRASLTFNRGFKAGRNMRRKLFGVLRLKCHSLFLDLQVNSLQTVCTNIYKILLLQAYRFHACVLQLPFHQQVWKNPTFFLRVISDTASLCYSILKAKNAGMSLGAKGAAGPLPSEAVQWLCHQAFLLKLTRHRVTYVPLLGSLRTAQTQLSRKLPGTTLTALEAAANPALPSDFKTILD
# Description: The activities of calf primase of pol α, human telomerase, T7 RNA polymerase, mouse IMP dehydrogenase, human DNA topoisomerases I and II, T4 polynucleotide kinase and bovine DNase I were measured in standard assays according to the manufacturer’s specifications, as described by Tamiya-Koizumi et al., Oda et al., Nakayama et al., Mizushina et al., Ishimaru et al., Soltis et al. and Lu et al., respectively.
# human pol η = biological target: T2, human pol η (Homo sapiens, UniProt Q9Y253); experiment: DNA polymerase assay, pol η
# T2 construct: A truncated form of human pol η (residues 1–511); His6 (C); made in house; host or cells: E. coli
# T2 sequence (Q9Y253 1-511): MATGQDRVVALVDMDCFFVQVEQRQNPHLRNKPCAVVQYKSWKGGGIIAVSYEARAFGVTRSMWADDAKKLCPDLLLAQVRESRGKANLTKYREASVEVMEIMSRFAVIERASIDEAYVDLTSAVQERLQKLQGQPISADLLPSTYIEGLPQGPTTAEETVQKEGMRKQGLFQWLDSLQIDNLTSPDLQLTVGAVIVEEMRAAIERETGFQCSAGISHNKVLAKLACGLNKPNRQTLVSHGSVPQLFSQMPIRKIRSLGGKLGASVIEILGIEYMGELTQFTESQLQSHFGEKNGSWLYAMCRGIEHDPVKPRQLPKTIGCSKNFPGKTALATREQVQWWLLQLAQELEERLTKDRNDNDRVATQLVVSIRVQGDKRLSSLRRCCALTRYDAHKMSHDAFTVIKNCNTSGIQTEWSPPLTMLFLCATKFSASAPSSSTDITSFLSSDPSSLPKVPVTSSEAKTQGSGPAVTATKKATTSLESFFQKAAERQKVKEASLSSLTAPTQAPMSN
# From the text: as §1, §2
# T1 sequence (Q9VCN1 whole entry): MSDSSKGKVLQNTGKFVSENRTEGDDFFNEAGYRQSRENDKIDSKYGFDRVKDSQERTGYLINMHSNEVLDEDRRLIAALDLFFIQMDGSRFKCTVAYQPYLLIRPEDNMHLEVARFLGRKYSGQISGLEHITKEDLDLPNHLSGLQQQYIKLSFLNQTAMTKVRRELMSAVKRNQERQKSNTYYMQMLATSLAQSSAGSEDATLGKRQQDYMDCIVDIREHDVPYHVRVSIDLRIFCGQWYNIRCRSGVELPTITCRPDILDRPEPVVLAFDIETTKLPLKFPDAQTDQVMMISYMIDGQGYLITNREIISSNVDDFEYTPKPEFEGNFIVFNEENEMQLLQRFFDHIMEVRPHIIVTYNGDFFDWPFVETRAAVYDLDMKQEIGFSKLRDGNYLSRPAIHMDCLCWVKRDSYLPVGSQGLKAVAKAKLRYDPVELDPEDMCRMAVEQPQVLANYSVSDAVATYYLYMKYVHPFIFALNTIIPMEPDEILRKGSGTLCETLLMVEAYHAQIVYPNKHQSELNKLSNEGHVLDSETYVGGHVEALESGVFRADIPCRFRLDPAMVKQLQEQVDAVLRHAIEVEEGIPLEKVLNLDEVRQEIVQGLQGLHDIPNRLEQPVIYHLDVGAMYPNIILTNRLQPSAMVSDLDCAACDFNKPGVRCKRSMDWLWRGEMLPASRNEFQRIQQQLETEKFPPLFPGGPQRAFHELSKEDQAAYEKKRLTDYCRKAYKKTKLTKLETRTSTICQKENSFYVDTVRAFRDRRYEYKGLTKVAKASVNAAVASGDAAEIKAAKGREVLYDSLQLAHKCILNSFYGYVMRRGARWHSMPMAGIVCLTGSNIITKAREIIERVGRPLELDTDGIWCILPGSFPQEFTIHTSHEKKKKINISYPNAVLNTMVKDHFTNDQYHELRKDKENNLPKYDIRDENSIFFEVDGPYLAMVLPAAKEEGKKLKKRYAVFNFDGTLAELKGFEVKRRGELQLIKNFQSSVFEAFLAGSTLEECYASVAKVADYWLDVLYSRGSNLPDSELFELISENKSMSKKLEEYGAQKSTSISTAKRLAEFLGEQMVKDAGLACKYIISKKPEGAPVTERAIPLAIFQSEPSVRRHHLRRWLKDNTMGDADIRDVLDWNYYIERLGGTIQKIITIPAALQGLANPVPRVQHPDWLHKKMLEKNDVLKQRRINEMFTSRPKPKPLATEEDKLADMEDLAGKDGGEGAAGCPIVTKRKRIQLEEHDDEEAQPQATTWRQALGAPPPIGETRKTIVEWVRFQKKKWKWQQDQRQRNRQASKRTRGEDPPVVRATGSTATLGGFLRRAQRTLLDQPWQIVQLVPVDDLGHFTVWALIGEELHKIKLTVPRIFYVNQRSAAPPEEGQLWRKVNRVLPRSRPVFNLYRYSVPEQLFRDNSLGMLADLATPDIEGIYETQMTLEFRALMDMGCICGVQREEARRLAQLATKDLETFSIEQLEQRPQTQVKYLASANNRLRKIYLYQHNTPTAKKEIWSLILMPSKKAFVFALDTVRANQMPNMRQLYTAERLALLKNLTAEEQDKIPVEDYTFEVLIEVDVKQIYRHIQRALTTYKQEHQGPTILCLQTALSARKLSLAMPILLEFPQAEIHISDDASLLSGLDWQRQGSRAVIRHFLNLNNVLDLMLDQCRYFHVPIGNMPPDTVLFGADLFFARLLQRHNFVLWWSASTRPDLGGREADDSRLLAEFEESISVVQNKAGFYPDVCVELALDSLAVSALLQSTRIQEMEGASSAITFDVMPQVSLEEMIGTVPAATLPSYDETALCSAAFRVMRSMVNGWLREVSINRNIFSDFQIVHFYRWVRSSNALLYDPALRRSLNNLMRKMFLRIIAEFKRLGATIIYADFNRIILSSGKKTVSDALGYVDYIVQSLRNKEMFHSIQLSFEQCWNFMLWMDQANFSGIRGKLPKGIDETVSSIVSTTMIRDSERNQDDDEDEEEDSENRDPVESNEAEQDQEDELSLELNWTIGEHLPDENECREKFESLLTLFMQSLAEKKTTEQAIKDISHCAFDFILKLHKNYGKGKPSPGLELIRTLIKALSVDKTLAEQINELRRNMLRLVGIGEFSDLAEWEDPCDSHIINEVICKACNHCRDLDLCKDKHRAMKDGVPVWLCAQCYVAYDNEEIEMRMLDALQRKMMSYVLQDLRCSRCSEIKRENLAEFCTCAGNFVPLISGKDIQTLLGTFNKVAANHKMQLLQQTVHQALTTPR
smiles,measurement,setting,value
"C/C=C/c1occ(C(=O)c2c(OC)cc(OC)cc2C(=O)OC)c(=O)c1OC [compound 1, 3-O-methylfunicone]",effect on fruit fly pol ɛ activity,fruit fly pol ɛ,hardly influenced
same,effect on human telomerase activity,human telomerase,did not influence
same,effect on pol η activity,human pol η; 100 μM,selectively inhibit
same,IC50,"human pol η; poly(dA)/oligo(dT)18 and dTTP, 0.05 units enzyme, read-out: 50% inhibition of pol η (IC50)",50.1 µM
